Reference: PMC11489226 (Archives of Toxicology, 2024)

Target: T1, CYP2C9 (Homo sapiens, UniProt P11712)
T1 construct: V5-His (vector-encoded) (C); expressed in transfected cells
Test: Metabolism in transgenic HEK293 cells expressing CYP2C9
Type: in vitro ADME
Settings: HEK293CYP2C9; 10 µM substrate, 24 h
Experimental: For the generation of transgenic cell lines, we used semi-adherent HEK293 cells (DSMZ, ACC305, human embryonic kidney cells) which were cultured on a daily basis in DMEM medium supplemented with 10% (FCS) and 1% penicillin/streptomycin. In a first step CYP1A2, CYP2C8, CYP2C9, CYP3A4, CYP2A6, and CYP2E1 cDNA were cloned into the plasmid pcDNATM3.1/V5-His TOPO® using human liver RNA as a template and using the following primers: CYP1A2 for5′-[…]-3′, CYP1A2 rev 5′-[…]-3′; CYP2C8 for 5′-[…]-3′, CYP2C8 rev 5′-[…]-3′; CYP2C9 for 5′-[…]-3′, CYP2C9 rev 5′-[…]-3′; CYP3A4 for 5′-[…]-3′, CYP3A4 rev 5′-[…]-3′, CYP2A6 for 5′-[…]-3′, CYP2A6 rev 5′-[…]-3′; CYP2E1 for 5′-[…]-3′, CYP2E1 rev 5′-[…]-3′. Final constructs were verified with Sanger DNA sequencing and restriction digestion. For transfection, 3 × 10^6 HEK293 cells were pre-incubated in a 10 cm dish in DMEM medium with 10% FCS, but without antibiotics, for 18 to 24 h. When the cells reached approximately 70% confluency, they were transfected using TransIT-LT1 transfection reagent (Biozol, Eiching, Germany). […]
HEK293 cells overexpressing the respective CYP enzymes were seeded onto 6-well plates and were treated with or without 10 µM of the respective probe drug in DMEM medium for 24 hours at 37 °C and 5 % CO2. […] Analytes were measured by LC-MS/MS either in methanol cell lysates or in DMEM supernatant. […]

T1 sequence (P11712 whole entry): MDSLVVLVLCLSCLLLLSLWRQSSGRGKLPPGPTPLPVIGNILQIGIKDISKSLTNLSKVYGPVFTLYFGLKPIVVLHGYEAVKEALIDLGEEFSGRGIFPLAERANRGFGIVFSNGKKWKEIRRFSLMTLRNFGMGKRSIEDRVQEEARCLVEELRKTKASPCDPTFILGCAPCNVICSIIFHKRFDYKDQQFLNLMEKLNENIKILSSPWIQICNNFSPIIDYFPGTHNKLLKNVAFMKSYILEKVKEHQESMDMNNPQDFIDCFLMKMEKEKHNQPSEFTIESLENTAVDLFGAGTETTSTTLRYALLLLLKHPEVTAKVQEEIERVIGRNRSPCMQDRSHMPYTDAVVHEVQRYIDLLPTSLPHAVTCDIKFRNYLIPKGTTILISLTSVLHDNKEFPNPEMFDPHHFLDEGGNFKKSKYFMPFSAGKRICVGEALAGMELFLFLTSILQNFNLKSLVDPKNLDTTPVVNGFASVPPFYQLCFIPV

## Cc1cccc(Nc2ccncc2S(=O)(=O)NC(=O)NC(C)C)c1 [Torasemide]
  Conversion product: Hydroxy torasemide
